According to a melting point compilation (Tetko et al.; mined from patent text by program, amines drawn as free bases though some values may be those of a salt):

| Structure (SMILES) | melting point |
| --- | --- |
| CC1(O)OC(=O)C(c2c(F)cc(F)cc2F)=C1c1ccc2ccccc2c1 (stereo not given) | 164 to 165 °C |
| NC1(CCC(O)(P(=O)(O)O)P(=O)(O)O)CCCCC1 | 143 °C |
| CC1=NC(NC(=O)Nc2cccc(C)c2)C(=O)N(CC(=O)N(C)c2ccccn2)c2c(C)cccc21 (stereo not given) | 222 to 224 °C |
| CCCn1cc2c(C3C(=O)Nc4ccc(Br)cc43)nc(NCC(O)CO)nc2n1 (stereo not given) | 295 to 297 °C |
| N[C@@H](Cc1ccc([N+](=O)[O-])cc1I)C(=O)O | > 200 °C |
| O=C(O)Cc1ccc2c(c1)C(=O)C(=Cc1ccccc1)C2 | 202 to 204 °C |
| COC(=O)C1(CC(N)=O)C(=O)N(Cc2ccc(Br)cc2F)C(=O)c2ccccc21 (stereo not given) | 180 to 182 °C |
| CC(C)(C)[Si](Oc1ccc(C=O)cc1)(c1ccccc1)c1ccccc1 | 103 to 105 °C |
| O=C(O)COc1ccc(S(=O)(=O)C(Br)(Br)Br)cc1 | 238 to 246 °C |
| NCCCCCCOc1ccccc1C(=O)Nc1ccc(C(=O)N2CCCCc3ccccc32)cc1 | 136 to 138 °C |
| Clc1ccc(Nc2nncc3ccccc23)cc1 | 211 °C |
| CC(C)Oc1c(-c2ccc3c(c2)[C@@H](N2Cc4ccccc4C2=O)[C@H](O)C(C)(C)O3)c(=O)c1=O (relative stereo) | > 250 °C |
| CCC(CC)N(O)C(=O)Nc1cc(C(F)(F)F)cc(C(F)(F)F)c1 | 115 to 116 °C |
| COCc1c(-c2cc(C)no2)ncc2[nH]c3ccc(OCc4ccccc4)cc3c12 | 202 to 203 °C |
| C/C(=C\c1ccc(Cc2cccnc2)cc1)C(=O)O | 164 to 166 °C |
| COc1ccc(COc2cccnc2N)c(F)c1 | 135 to 138 °C |
| CN(C(=O)Cc1ccc([N+](=O)[O-])cc1)C1c2ccccc2CCC1N1CCCC1 (stereo not given) | 135 °C |
| NC(=O)c1ncn2c(-c3ccc(N4CCOCC4)cc3)ccnc12 | 274 to 277 °C |
| CCC[C@H]1CC[C@H](c2ncc(C(N)=O)cn2)CC1 | 234 to 235 °C |
| CCCCC(=O)NCCCSCCO | 7 °C |

| Structure (SMILES) | melting point |
| --- | --- |
| Cn1ncc2nc3cccc(F)c3c(Cl)c21 | 269 °C |
| Cc1c(-c2cnc(N(C)C)nc2)ssc1=S | 135 °C |
| CC(C)(C)OC(=O)c1cccc(C#N)n1 | 156 to 157 °C |
| CCCN1CC(NC(=O)C(C)(C)C)CC2c3cccc4[nH]c(Br)c(c34)CC21 (stereo not given) | 182 to 183 °C |
| O=CNC1=NN(c2ccc(F)cc2)C(c2ccccc2)C1 (stereo not given) | 158 to 160 °C |
| CN1CC(CCN2CCN(c3cc(Cl)cc(Cl)c3)CC2)OC1=O (stereo not given) | 89 to 90 °C |
| COc1cc(OC(C)(C)C(=O)O)c(-c2cccs2)cc1C=O | 183 to 184 °C |
| COC=C(C(=O)OC)c1cnc(C)nc1Oc1cccc(C(F)(F)F)c1 | 100 to 102 °C |
| COc1cc2c(cc1OC)C(N1CCN(c3ccc4c(c3)CCC(=O)N4)CC1)=NCC2 | 70 to 75 °C |
| CCOC(=O)c1ccc(-c2cnc3c(c2)NC(=O)CN3)cc1 | > 200 °C |
| O=C(O)c1cccc2c1Cc1c-2[nH]c2ccc(Cl)cc12 | > 300 °C |
| CCc1nc2c(C)cc(C)nc2n1Cc1ccc2nc(-c3ccccc3NS(=O)(=O)C(F)(F)F)ccc2c1 | 252 °C |
| CC1=NN=C(c2ccc([N+](=O)[O-])c(C)c2)c2cc3c(cc2C1)OCO3 | 189 to 194 °C |
| O=C(O)Cc1c(C(=O)c2cccc(OCc3ccccc3)c2)[nH]c2cc(Cl)ccc12 | 174 to 177 °C |
| CC(C)(C)Cc1cc(C2(N)CC2)no1 | 39 to 47 °C |
| c1ccc(Oc2ccc(C(c3ccccc3)(c3ccccn3)n3ccnc3)cc2)cc1 (stereo not given) | 137 to 140 °C |
| O=C(c1ccc2nonc2c1)N1C2CCC1CC(F)(F)C2 | 165 to 166 °C |
| COc1ccc(C)cc1-c1cc2ccccc2[nH]1 | 119 °C |
| O=C1N(Cc2ccc(N3CCOCC3)nc2)c2ccccc2C12COc1cc3c(cc12)OCCO3 (stereo not given) | 117 to 119 °C |
| O=[N+]([O-])c1ccc(F)cc1Nc1ccc(F)cc1 | 115 to 116 °C |
